Measured values from patent publication US20220347167A1, “A NEW TREATMENT FOR MEIBOMIAN GLAND DYSFUNCTION” (The Schepens Eye Research Institute, Inc., priority 2019, published 2022).

Assays:
IHMGECs = assay: HPTLC analysis of nonpolar lipids and phospholipids in IHMGEC lipid extracts; type: cell-based, human; settings: Roxa, 4 days
Description: Authenticated IHMGECs were grown and passaged in keratinocyte serum-free medium (KSFM) with 5 ng/mL epidermal growth factor (EGF) and 50 μg/mL bovine pituitary extract (BPE) (Thermo Fisher Scientific, Waltham, Mass.) under 21% O2 (normoxia) [Liu et al. (2010) Investigative ophthalmology & visual science 51:3993-4005; McDermott et al. (2018) Current eye research 43:1097-1101; Liu et al. (2013) Investigative ophthalmology & visual science 54:2541-2550]. Upon reaching 60% to 70% confluence, culture media were replaced by a 1:1 mixture of Dulbecco's modified Eagle's medium and Ham's F12 (DMEM/F12, Corning Life Sciences, Tewksbury, Mass.), supplemented with 10% fetal bovine serum (FBS, Atlanta Biologicals, Flowery Branch, Ga.) [Sullivan et al. (2014) Investigative ophthalmology & visual science 55:3866-3877; Liu et al. (2014) JAMA ophthalmology 132:226-228]. Cells were cultured for 4-10 days under 21% O2 (normoxic) or 1% O2 (hypoxic) conditions. Culture plates of cells in the hypoxic condition were incubated inside hypoxia chambers filled with a premade 1% O2, 5% CO2 and 94% N2 gas mixture (Linde Gas North America, Hammond, Ind.), according to published protocols in Liu et al. (2019) The ocular surface 17(2):310-317 and Wright and Shay (2006) Nat Protoc 1:2088-2090. Following cell medium changes, the chambers were re-flushed with the gas mixture before returning to the incubator. Cells were cultured in the presence or absence of 50 μM Roxa (Selleck Chemical, Houston, Tex.) under normoxic or hypoxic conditions for 4 to 10 days. Cell culture experiments (n=3 wells/treatment) were repeated at least 3 times.
Cells seeded in 10-cm polystyrene-coated dishes (Corning, Falcon) were extracted with chloroform and methanol, and the lipid extractions were separated by high-performance thin-layer chromatography (HPTLC), as previously described in Liu et al. Toxicology 2014; 320:1-5, Liu and Ding (2014) Investigative ophthalmology & visual science 55:5596-5601, and Liu et al. (2015) Cornea 34:342-346. In brief, for nonpolar lipid analysis, the plate (Silica Gel 60, Merck, Darmstadt, Germany) was developed in hexane: diethyl ether: acetic acid (80:20:1.5, vol/vol/vol) alone. For phospholipids analysis, the plate was developed sequentially in chloroform:ethanol:water (60:30:5 vol/vol/vol) and then hexane:diethyl ether:acetic acid (80:20:1.5, vol/vol/vol) [Liu and Ding (2014) Investigative ophthalmology & visual science 55:5596-5601]. Bands were visualized according to published protocols [Ponec et al. (1988) Journal of lipid research 29:949-961], and the intensities of bands were quantified using ImageJ [Liu and Ding (2014) Investigative ophthalmology & visual science 55:5596-5601].
To examine whether 1% O2 exposure and/or Roxa administration stimulate the accumulation of neutral lipids within IHMGECs [Liu et al. (2019) Ocul Surf 17:310-317], IHMGECs were treated with Roxa ([…]) in either normoxic (21% O2) or hypoxic (1% O2) environments conditions for 4 days.

DNase II = DNase II activity by single radial enzyme diffusion assay (SREDA) in IHMGECs; type: cell-based, human
Description: After being treated with 21% O2, 1% O2, 10 μM Roxa or a combination for 10 days, cell numbers were counted with a hemocytometer and the cell lysates and cell culture supernatants were collected, as previously described in Liu et al. (2019) The ocular surface 17(2):310-317. DNase II activity in fresh samples was analyzed by SREDA in agarose gels according to published protocols in Liu et al. (2019) The ocular surface 17(2):310-317 and Oka et al. (2012) Nature 485:251-255. Cell lysates and culture media were used to measure the DNase II activity inside and outside of the cells, respectively [Liu et al. (2019) The ocular surface 17(2):310-317]. After incubation for 3-24 hours at 37° C., the area of the dark circle in the gel was measured under an UV trans-illuminator at 312 nm. For comparison between conditions, values were normalized to cell number.
Low O2 increases DNase II activity and promotes cell terminal differentiation of IHMGECs (Liu et al. Ocul Surf 2019; 17:310-317). To determine whether Roxa treatment can reproduce this hypoxic effect, IHMGECs were treated with Roxa in both normoxic and 1% O2 conditions for 10 days, prior to counting cell numbers and analyzing DNase II activity in cell lysates and supernatants.

[1] = under either normoxic or hypoxic conditions, vs controls
[2] = Roxa alone, 21% O2, 10 days, normalized to cell number

DNase II activity in IHMGEC culture supernatants (DNase II; [2]): significantly increased
DNase II activity in IHMGEC lysates (DNase II; [2]): significantly increased
magnitude of DNase II activity increase, Roxa and low O2 combination (DNase II; Roxa in 1% O2, 10 days, lysates and supernatants, vs 1% O2 alone and Roxa alone): greatest
SMILES: Cc1nc(C(=O)NCC(=O)O)c(O)c2ccc(Oc3ccccc3)cc12 [Roxa, roxadustat]
amount of cholesterol esters in IHMGECs (IHMGECs): Neither Roxa nor 1% O2 had any effect
amount of lysophosphatidylcholines in IHMGECs (IHMGECs): Neither Roxa nor 1% O2 had any effect
amount of phosphatidic acid in IHMGECs (IHMGECs): Neither Roxa nor 1% O2 had any effect
amount of phosphatidylcholine in IHMGECs (IHMGECs): Neither Roxa nor 1% O2 had any effect
amount of phosphatidylethanolamine in IHMGECs (IHMGECs): Neither Roxa nor 1% O2 had any effect
amount of phosphatidylinositol in IHMGECs (IHMGECs): Neither Roxa nor 1% O2 had any effect
amount of wax esters in IHMGECs (IHMGECs): Neither Roxa nor 1% O2 had any effect
expression of unidentified polar lipids in IHMGECs (HPTLC) (IHMGECs): appeared to enhance
levels of free fatty acids (FFAs) in IHMGECs (HPTLC) (IHMGECs; [1]): increased
levels of triglycerides in IHMGECs (HPTLC) (IHMGECs; [1]): increased
